Publication PMC6474902, “Examination of novel 4-aminoquinoline derivatives designed and synthesized by a hybrid pharmacophore approach to enhance their anticancer activities” (Scientific Reports, 2019)
Where two headings read alike, the source gives them in different places.

Legend:
[1] = system: MCF7; assay: SRB antiproliferative/antigrowth assay; assay type: cell-based, human; conditions: for GI50: SRB, 48 h post-treatment, mean of triplicates of at least two experiments, read-out: GI50 MCF7
Method: (§1) The antigrowth effects of 4-piperazinylquinoline sulfonyl analogs on human breast tumor cells was initially evaluated using MDA-MB468 (a PTEN defective, EGFR positive breast adenocarcioma), MDA-MB231 (p53 and pRB mutated, triple-negative breast carcinoma), and MCF7 (p53+/−, invasive ductal breast carcinoma) cell lines. In addition, the cytotoxicity of all the compounds was also evaluated with the 184B5 and MCF10A non-cancer immortalized breast epithelial cell lines, to determine if these newly synthesized compounds have differential cytotoxic effects on cancer and non-cancer cells. The panel of three breast cancer cell lines with different genetic back ground and the well-studied two non-cancer immortalized breast cell lines would provide insights into the efficacy and toxicity of the test compounds in the different genetic background and at different stages of tumor development. The dose response of each cell line was established by determining the number of viable cells after 48 h of continuous drug treatment against seven different concentrations (100 µM to 0.0064 µM) of each compound. The reading of sulphorodamine B (SRB) staining is known to accurately reflect the level of total cellular macromolecules/cell growth/proliferation[6],[23]. […] The data for CQ and cisplatin were included as references. […] The differences in the GI50 values may be attributable to such factors as the nature of the sulfonyl group and the halogen substitution on the 7th position of the 4-piperazinylquinoline ring system, and the genetic and biochemical background of the cell lines.
(§2) Antiproliferative/antigrowth effects were determined by a SRB-based protocol[6],[23]. For a typical screening experiment, 5,000–10,000 cells were inoculated into 100 µL medium per well of a 96-well microtiter plate as described previously. Briefly, after the inoculation, the microtiter plate was incubated at 37 °C, 5% CO2, 95% air and 100% relative humidity for 24 h, prior to addition of experimental drugs. Some of the sample wells were fixed with 25 µL of 50% tricholoroacetic acid (TCA) as a control of the cell population for each cell line at the time of drug addition (Tz). An aliquot of the frozen stock was thawed and diluted to a desired final maximum test-concentration with complete medium. Two to ten-fold serial dilutions were made to provide a total of seven drug concentrations (and a control [C]). Following addition of drugs, the culture plate was incubated for additional 48 h. Cells were fixed in situ by slowly adding 25 µL of ice-cold 50% (w/v) TCA (final concentration, 10% TCA), and were then incubated for 60 min at 4 °C. The supernatant was discarded, and the plate was washed five times with tap water, followed by air-dry. 50 µL of SRB solution at 0.4% (w/v) in 1% acetic acid was added to each well, and the plate was incubated for >30 min at room temperature. Unbound SRB was removed by five washes with tap water, followed by air-drying. The cells “stained” with SRB were solubilized with 10 mM trizma base, and the absorbance was read on an automated plate reader at a wavelength of 515–564 nm. The relative growth rate (%) was calculated for each of the compound concentrations according to the following formula: (Ti−Tz)/(C−Tz)×100
(§3) In the formula, time zero (Tz), control growth (C), and OD for different concentration of tested compounds (Ti). The GI50 for each compound was obtained from a non-linear Sigmoidal dose-response (variable slope) curve which is fitted by GraphPad Prism v.4.03 software. Values were calculated for each of these parameters if the level of activity was reached. However, if the effect was not reached or was exceeded, the value for that parameter was expressed as greater or less than the maximum or minimum concentration tested.

[2] = system: MDA-MB231; assay: SRB antiproliferative/antigrowth assay; assay type: cell-based, human; conditions: for GI50: SRB, 48 h post-treatment, mean of triplicates of at least two experiments, read-out: GI50 MB231
Method: as §1, §2, §3

[3] = system: MDA-MB468; assay: SRB antiproliferative/antigrowth assay; assay type: cell-based, human; conditions: SRB, 48 h post-treatment, mean of triplicates of at least two experiments, read-out: GI50 MB468
Method: as §1, §2, §3

[4] = system: 184B5; assay: SRB antiproliferative/antigrowth assay, non-cancer cells; assay type: cell-based, human; conditions: SRB, 48 h post-treatment, non-cancer breast epithelial cells, read-out: GI50 184B5
Method: as §1, §2, §3

[5] = system: MCF10A; assay: as above; assay type: cell-based, human; conditions: SRB, 48 h post-treatment, non-cancer breast epithelial cells, read-out: GI50 MCF10A
Method: as §1, §2, §3

| Molecule | GI50 [1] | GI50 [2] | GI50 [3] | GI50 [4] | GI50 [5] | GI50 ([1]; Homo sapiens, MCF7, 48 h) | GI50 ([2]; Homo sapiens, MDA-MB-231, 48 h) | GI50 ([3]; Homo sapiens, MDA-MB-468, 48 h) | GI50 ([4]; Homo sapiens, 184B5, 48 h) | GI50 ([5]; Homo sapiens, MCF-10A, 48 h) | increase in antigrowth activity on MCF7 in comparison to methyl substituted compound 7 [1] | melting point | increase in antigrowth activity on MDA-MB231 in comparison to methyl substituted compound 16 [2] | increase in potency on MDA-MB231 in comparison to methyl substituted compounds (25 and 34) [2] | more effective than cisplatin (MCF7) ([1]; ratio of GI50 values) | more effective than cisplatin (MDA-MB231) ([2]; ratio of GI50 values) |
| --- | --- | --- | --- | --- | --- | --- | --- | --- | --- | --- | --- | --- | --- | --- | --- | --- |
| 7-Chloro-4-(4-(biphenylsulfonyl)piperazin-1-yl)quinoline [Compound 9] | 9.2 ± 0.2 µM | 26.2 ± 0.6 µM | 18.2 ± 0.5 µM | 16.4 ± 0.2 µM | 12.4 ± 0.2 µM |  |  |  |  |  |  |  |  |  |  |  |
| CS(=O)(=O)N1CCN(c2ccnc3cc(Cl)ccc23)CC1 [Compound 7, 7-Chloro-4-(4-(methylsulfonyl)piperazin-1-yl)quinoline] |  |  |  |  |  | 22.9 ± 0.6 µM | 42.7 ± 0.8 µM | 35.1 ± 0.8 µM | 11.5 ± 0.2 µM | 15.3 ± 0.1 µM |  |  |  |  |  |  |
| O=S(=O)(c1ccc(Cl)cc1)N1CCN(c2ccnc3cc(Cl)ccc23)CC1 [Compound 10, 7-Chloro-4-(4-(4-chlorophenylsulfonyl)piperazin-1-yl)quinoline] |  |  |  |  |  | 7.6 ± 0.1 µM | 25.5 ± 0.7 µM | 16 ± 0.6 µM | 12.1 ± 0.2 µM | 8.7 ± 0.1 µM | 3 fold |  |  |  |  |  |
| O=S(=O)(c1ccc(Cl)cc1Cl)N1CCN(c2ccnc3cc(Cl)ccc23)CC1 [Compound 11, 7-Chloro-4-(4-(2,4-dichlorophenylsulfonyl)piperazin-1-yl)quinoline] |  |  |  |  |  | 13.5 ± 0.2 µM | 40.6 ± 0.8 µM | 21.6 ± 0.6 µM | 12.4 ± 0.1 µM | 8.9 ± 0.2 µM |  | 145 to 147 °C |  |  |  |  |
| O=[N+]([O-])c1cccc(S(=O)(=O)N2CCN(c3ccnc4cc(Cl)ccc34)CC2)c1 [Compound 12, 7-Chloro-4-(4-(3-nitrophenylsulfonyl)piperazin-1-yl)quinoline] |  |  |  |  |  | 14.8 ± 0.2 µM | 34.7 ± 0.7 µM | 25.1 ± 0.7 µM | 13.3 ± 0.2 µM | 15.5 ± 0.2 µM |  | 138 to 140 °C |  |  |  |  |
| COC(=O)c1sccc1S(=O)(=O)N1CCN(c2ccnc3cc(Cl)ccc23)CC1 [Compound 15, Methyl 3-(4-(7-chloroquinolin-4-yl)piperazin-1-ylsulfonyl)thiophene-2-carboxylate] |  |  |  |  |  | 22.4 ± 0.2 µM | 40.4 ± 0.8 µM | 30.2 ± 0.7 µM | 15.2 ± 0.2 µM | 14.6 ± 0.1 µM |  | 117 to 119 °C |  |  |  |  |
| Cc1ccc(S(=O)(=O)N2CCN(c3ccnc4cc(C(F)(F)F)ccc34)CC2)cc1 [Compound 17, 4-[4-(Toluene-4-sulfonyl)-piperazin-1-yl]-7-trifluoromethyl-quinoline] |  |  |  |  |  | 20.8 ± 0.2 µM | 42.7 ± 0.8 µM | 36.5 ± 0.8 µM | 12.9 ± 0.1 µM | 10.5 ± 0.1 µM |  | 126 to 128 °C |  |  |  |  |
| O=S(=O)(c1ccc(-c2ccccc2)cc1)N1CCN(c2ccnc3cc(C(F)(F)F)ccc23)CC1 [Compound 18, 4-[4-(Biphenyl-4-sulfonyl)-piperazin-1-yl]-7-trifluoromethyl-quinoline] |  |  |  |  |  | 14.8 ± 0.2 µM | 27.2 ± 0.6 µM | 20.5 ± 0.5 µM | 19.1 ± 0.2 µM | 15.5 ± 0.4 µM |  | 148 to 150 °C |  |  |  |  |
| O=S(=O)(c1ccc(Cl)cc1)N1CCN(c2ccnc3cc(C(F)(F)F)ccc23)CC1 [Compound 19, 4-[4-(4-Chloro-benzenesulfonyl)-piperazin-1-yl]-7-trifluoromethyl-quinoline] |  |  |  |  |  | 27.4 ± 0.3 µM | 41.4 ± 0.8 µM | 34.9 ± 0.8 µM | 21.8 ± 0.3 µM | 13.6 ± 0.2 µM |  | 144 to 146 °C |  |  |  |  |
| O=S(=O)(c1ccc(Cl)cc1Cl)N1CCN(c2ccnc3cc(C(F)(F)F)ccc23)CC1 [Compound 20, 4-[4-(2,4-Dichloro-benzenesulfonyl)-piperazin-1-yl]-7-trifluoromethyl-quinoline] |  |  |  |  |  | 16.7 ± 0.2 µM | 20.3 ± 0.5 µM | 18.6 ± 0.5 µM | 20.4 ± 0.2 µM | 15.6 ± 0.2 µM |  | 137 to 139 °C | 2 fold |  |  |  |
| CN(C)c1cccc2c(S(=O)(=O)N3CCN(c4ccnc5cc(C(F)(F)F)ccc45)CC3)cccc12 [Compound 23, Dimethyl-{5-[4-(7-trifluoromethyl-quinolin-4-yl)-piperazine-1-sulfonyl]-naphthalen-1-yl}-amine] |  |  |  |  |  | 12.9 ± 0.2 µM | 22.1 ± 0.6 µM | 19.1 ± 0.6 µM | 12 ± 0.2 µM | 15.4 ± 0.5 µM |  | 98 to 100 °C |  |  |  |  |
| CS(=O)(=O)NCCCNc1ccnc2cc(Cl)ccc12 [Compound 25, N-[3-(7-Chloro-quinolin-4-ylamino)-propyl]-methanesulfonamide] |  |  |  |  |  | 23.1 ± 0.9 µM | 40.9 ± 1.5 µM | 28.6 ± 1 µM | 23.3 ± 0.9 µM | 39.1 ± 1.2 µM |  |  |  |  |  |  |
| O=S(=O)(NCCCNc1ccnc2cc(Cl)ccc12)c1ccc(Cl)cc1 [Compound 28, 4-Chloro-N-(3-(7-chloroquinolin-4-ylamino)propyl)benzenesulfonamide] |  |  |  |  |  | 4.3 ± 0.3 µM | 11.8 ± 0.9 µM | 8.3 ± 0.7 µM | 6.4 ± 0.3 µM | 9.7 ± 0.1 µM |  |  |  | 3.5–4.4 fold |  |  |
| O=[N+]([O-])c1cccc(S(=O)(=O)NCCCNc2ccnc3cc(Cl)ccc23)c1 [Compound 30, N-(3-(7-chloroquinolin-4-ylamino)propyl)-3-nitrobenzenesulfonamide] |  |  |  |  |  | 8.6 ± 0.4 µM | 20.4 ± 1.2 µM | 9.2 ± 0.7 µM | 15.8 ± 0.9 µM | 31.1 ± 1.1 µM |  |  |  |  |  |  |
| COC(=O)c1sccc1S(=O)(=O)NCCCNc1ccnc2cc(Cl)ccc12 [Compound 33, 3-[3-(7-Chloro-quinolin-4-ylamino)-propylsulfamoyl]-thiophene-2-carboxylic acid methyl ester] | 4.2 ± 0.2 µM | 6.1 ± 0.5 µM | 4.1 ± 0.3 µM | 15.7 ± 0.4 µM | 16.5 ± 0.8 µM | 4.22 µM | 5.97 µM | 4.18 µM | 15.7 µM | 16.5 µM |  |  |  |  | 6.1 fold | 4.0 fold |
